In US20240295567A1, “HYPOXIA BIOMARKER AND USE THEREOF” (Kyoto University, priority 2021, published 2024):

Key:
[1] = tested on: human prostate cancer-derived cell line DU145; assay: Colony formation test after gamma ray irradiation with or without recombinant SPINK1 protein; format: cell-based; conditions: rSPINK1 100 ng/ml for 24 hours, 0, 2, 4 or 6 Gy gamma rays, cultured 14 days, FIG. 41
Procedure: Human prostate cancer-derived cell line DU145 was cultured in serum-free medium under normal oxygen (20%) conditions for 24 hours. The medium was then replaced with normal medium (containing 5% serum) containing a recombinant SPINK1 protein at a final concentration of 100 ng/ml or with normal medium not containing the recombinant SPINK1 protein. The cells were cultured under normal oxygen conditions for 24 hours. The cells were then irradiated with 0, 2, 4, or 6 Gy gamma rays and cultured for 14 days. A colony formation test was then performed.

[2] = tested on: human prostate cancer-derived cell line DU145; assay: Viable cell quantification (Cell Count Reagent SF) after gamma ray irradiation with or without recombinant SPINK1 and anti-SPINK1 antibody; format: cell-based; conditions: recombinant SPINK1 purified protein for 24 hours, 0 or 4 Gy gamma rays, 3 further days, FIG. 43
Procedure: Human prostate cancer-derived cell line DU145 was seeded into 96-well cell culture plates (4×10^2 cells per well in a 96-well plate when the dose of the subsequent irradiation is 0 Gy; and 1.2×10^3 cells per well when the dose is 4 Gy) and cultured in a CO2 incubator under a normal oxygen concentration overnight. Thereafter, the cells were cultured in serum-free medium for another 24 hours and then cultured in the presence or absence of recombinant SPINK1 purified protein and in the presence or absence of anti-SPINK1 antibody under normal oxygen conditions for 24 hours. The cells were then irradiated with 0 Gy or 4 Gy gamma rays and cultured under normal oxygen conditions for an additional 3 days. Viable cells were then quantified with Cell Count Reagent SF (produced by Nacalai Tesque, Inc., Catalog #07553-44).

recombinant SPINK1 protein: recombinant SPINK1 (serine protease inhibitor Kazal type I) protein added to culture medium (DSLGREAKCYNELNGCTKIYDPVCGTDGNTYPNECVLCFENRKRQTSILIQKSGPC; UniProt P00995 24-79, looked up)
radiation resistance of the cells (colony formation) [1]: radiation resistance of the cells is induced | radiation resistance of the cells (viable cells) [2]: radiation resistance of the cells was induced
